Data: ChEMBL document CHEMBL4627246, “Pyroglutamide-Based P2X7 Receptor Antagonists Targeting Inflammatory Bowel Disease” (J Med Chem, 2020)

What follows are molecules tested on CCRF-CEM (assay: Cytotoxicity against human CCRF-CEM cells assessed as effect on cell growth at 10 uM incubated for 48 hrs by sulforhodamine B assay). Conditions: not given.
Type: cell-based
`CN1C(=O)CC[C@H]1C(=O)NCc1cc(C(F)(F)F)ccc1Cl` was tested, and the Activity was “Non-Toxic”.
For `O=C(NCc1ccc(Cl)cc1Cl)[C@@H]1CCC(=O)N1Cc1ccc(Cl)cc1`, the Activity was “Non-Toxic”.
With `O=C(NCc1ccc(Cl)cc1Cl)[C@@H]1CCC(=O)N1c1cscn1` the Activity was “Non-Toxic”.

Each molecule was assayed on K562 (assay: Cytotoxicity against human K562 cells assessed as effect on cell growth at 10 uM incubated for 48 hrs by sulforhodamine B assay). Conditions: k562, 48 h.
Type: cell-based
`CN1C(=O)CC[C@H]1C(=O)NCc1cc(C(F)(F)F)ccc1Cl` was tested, and the Activity was “Non-Toxic”.
With `O=C(NCc1ccc(Cl)cc1Cl)[C@@H]1CCC(=O)N1Cc1ccc(Cl)cc1` the Activity was “Non-Toxic”.
In the case of `O=C(NCc1ccc(Cl)cc1Cl)[C@@H]1CCC(=O)N1c1cscn1`, the Activity is reported as “Non-Toxic”.

Each molecule was assayed on HOP-62 (assay: Cytotoxicity against human HOP62 cells assessed as effect on cell growth at 10 uM incubated for 48 hrs by sulforhodamine B assay). Conditions: hop-62, 48 h.
Type: cell-based
With `CN1C(=O)CC[C@H]1C(=O)NCc1cc(C(F)(F)F)ccc1Cl` the Activity was “Non-Toxic”.
`O=C(NCc1ccc(Cl)cc1Cl)[C@@H]1CCC(=O)N1Cc1ccc(Cl)cc1` was tested, and the Activity was “Non-Toxic”.
In the case of `O=C(NCc1ccc(Cl)cc1Cl)[C@@H]1CCC(=O)N1c1cscn1`, the Activity is reported as “Non-Toxic”.

The molecules below were run on NCI-H226 (assay: Cytotoxicity against human NCI-H226 cells assessed as effect on cell growth at 10 uM incubated for 48 hrs by sulforhodamine B assay). Conditions: nci-h226, 48 h.
Type: cell-based
In the case of `CN1C(=O)CC[C@H]1C(=O)NCc1cc(C(F)(F)F)ccc1Cl`, the Activity is reported as “Non-Toxic”.
`O=C(NCc1ccc(Cl)cc1Cl)[C@@H]1CCC(=O)N1Cc1ccc(Cl)cc1` was tested, and the Activity was “Non-Toxic”.
With `O=C(NCc1ccc(Cl)cc1Cl)[C@@H]1CCC(=O)N1c1cscn1` the Activity was “Non-Toxic”.

What follows are molecules tested on SF-268 (assay: Cytotoxicity against human SF268 cells assessed as effect on cell growth at 10 uM incubated for 48 hrs by sulforhodamine B assay). Conditions: sf-268, 48 h.
Type: cell-based
In the case of `CN1C(=O)CC[C@H]1C(=O)NCc1cc(C(F)(F)F)ccc1Cl`, the Activity is reported as “Non-Toxic”.
With `O=C(NCc1ccc(Cl)cc1Cl)[C@@H]1CCC(=O)N1Cc1ccc(Cl)cc1` the Activity was “Non-Toxic”.
With `O=C(NCc1ccc(Cl)cc1Cl)[C@@H]1CCC(=O)N1c1cscn1` the Activity was “Non-Toxic”.

Each molecule was assayed on LOX IMVI (assay: Cytotoxicity against human LOXIMVI cells assessed as effect on cell growth at 10 uM incubated for 48 hrs by sulforhodamine B assay). Conditions: not given.
Type: cell-based
In the case of `CN1C(=O)CC[C@H]1C(=O)NCc1cc(C(F)(F)F)ccc1Cl`, the Activity is reported as “Non-Toxic”.
With `O=C(NCc1ccc(Cl)cc1Cl)[C@@H]1CCC(=O)N1Cc1ccc(Cl)cc1` the Activity was “Non-Toxic”.
For `O=C(NCc1ccc(Cl)cc1Cl)[C@@H]1CCC(=O)N1c1cscn1`, the Activity was “Non-Toxic”.

The molecules below were run on MDA-MB-435 (assay: Cytotoxicity against human MDA-MB-435 cells assessed as effect on cell growth at 10 uM incubated for 48 hrs by sulforhodamine B assay). Conditions: mda-mb-435, 48 h.
Type: cell-based
For `CN1C(=O)CC[C@H]1C(=O)NCc1cc(C(F)(F)F)ccc1Cl`, the Activity was “Non-Toxic”.
With `O=C(NCc1ccc(Cl)cc1Cl)[C@@H]1CCC(=O)N1Cc1ccc(Cl)cc1` the Activity was “Non-Toxic”.
`O=C(NCc1ccc(Cl)cc1Cl)[C@@H]1CCC(=O)N1c1cscn1` was tested, and the Activity was “Non-Toxic”.

The molecules below were run on SK-MEL-2 (assay: Cytotoxicity against human SK-MEL-2 cells assessed as effect on cell growth at 10 uM incubated for 48 hrs by sulforhodamine B assay). Conditions: sk-mel-2, 48 h.
Type: cell-based
With `CN1C(=O)CC[C@H]1C(=O)NCc1cc(C(F)(F)F)ccc1Cl` the Activity was “Non-Toxic”.
In the case of `O=C(NCc1ccc(Cl)cc1Cl)[C@@H]1CCC(=O)N1Cc1ccc(Cl)cc1`, the Activity is reported as “Non-Toxic”.
`O=C(NCc1ccc(Cl)cc1Cl)[C@@H]1CCC(=O)N1c1cscn1` was tested, and the Activity was “Non-Toxic”.

What follows are molecules tested on SK-MEL-28 (assay: Cytotoxicity against human SK-MEL-28 cells assessed as effect on cell growth at 10 uM incubated for 48 hrs by sulforhodamine B assay). Conditions: sk-mel-28, 48 h.
Type: cell-based
With `CN1C(=O)CC[C@H]1C(=O)NCc1cc(C(F)(F)F)ccc1Cl` the Activity was “Non-Toxic”.
`O=C(NCc1ccc(Cl)cc1Cl)[C@@H]1CCC(=O)N1Cc1ccc(Cl)cc1` was tested, and the Activity was “Non-Toxic”.
`O=C(NCc1ccc(Cl)cc1Cl)[C@@H]1CCC(=O)N1c1cscn1` was tested, and the Activity was “Non-Toxic”.

What follows are molecules tested on SK-MEL-5 (assay: Cytotoxicity against human SK-MEL-5 cells assessed as effect on cell growth at 10 uM incubated for 48 hrs by sulforhodamine B assay). Conditions: sk-mel-5, 48 h.
Type: cell-based
In the case of `CN1C(=O)CC[C@H]1C(=O)NCc1cc(C(F)(F)F)ccc1Cl`, the Activity is reported as “Non-Toxic”.
With `O=C(NCc1ccc(Cl)cc1Cl)[C@@H]1CCC(=O)N1Cc1ccc(Cl)cc1` the Activity was “Non-Toxic”.
`O=C(NCc1ccc(Cl)cc1Cl)[C@@H]1CCC(=O)N1c1cscn1` was tested, and the Activity was “Non-Toxic”.

Each molecule was assayed on UACC-257 (assay: Cytotoxicity against human UACC257 cells assessed as effect on cell growth at 10 uM incubated for 48 hrs by sulforhodamine B assay). Conditions: uacc-257, 48 h.
Type: cell-based
`CN1C(=O)CC[C@H]1C(=O)NCc1cc(C(F)(F)F)ccc1Cl` was tested, and the Activity was “Non-Toxic”.
With `O=C(NCc1ccc(Cl)cc1Cl)[C@@H]1CCC(=O)N1Cc1ccc(Cl)cc1` the Activity was “Non-Toxic”.
`O=C(NCc1ccc(Cl)cc1Cl)[C@@H]1CCC(=O)N1c1cscn1` was tested, and the Activity was “Non-Toxic”.

The molecules below were run on OVCAR-3 (assay: Cytotoxicity against human OVCAR3 cells assessed as effect on cell growth at 10 uM incubated for 48 hrs by sulforhodamine B assay). Conditions: ovcar-3, 48 h.
Type: cell-based
For `CN1C(=O)CC[C@H]1C(=O)NCc1cc(C(F)(F)F)ccc1Cl`, the Activity was “Non-Toxic”.
In the case of `O=C(NCc1ccc(Cl)cc1Cl)[C@@H]1CCC(=O)N1Cc1ccc(Cl)cc1`, the Activity is reported as “Non-Toxic”.
In the case of `O=C(NCc1ccc(Cl)cc1Cl)[C@@H]1CCC(=O)N1c1cscn1`, the Activity is reported as “Non-Toxic”.

What follows are molecules tested on OVCAR-4 (assay: Cytotoxicity against human OVCAR4 cells assessed as effect on cell growth at 10 uM incubated for 48 hrs by sulforhodamine B assay). Conditions: ovcar-4, 48 h.
Type: cell-based
For `CN1C(=O)CC[C@H]1C(=O)NCc1cc(C(F)(F)F)ccc1Cl`, the Activity was “Non-Toxic”.
For `O=C(NCc1ccc(Cl)cc1Cl)[C@@H]1CCC(=O)N1Cc1ccc(Cl)cc1`, the Activity was “Non-Toxic”.
In the case of `O=C(NCc1ccc(Cl)cc1Cl)[C@@H]1CCC(=O)N1c1cscn1`, the Activity is reported as “Non-Toxic”.

Each molecule was assayed on CAKI-1 (assay: Growth inhibition of human Caki1 cells assessed as growth percentage at 10 uM incubated for 48 hrs by sulforhodamine B assay). Conditions: caki-1, 48 h.
Type: cell-based
With `CN1C(=O)CC[C@H]1C(=O)NCc1cc(C(F)(F)F)ccc1Cl` the Activity was “Non-Toxic”.
`O=C(NCc1ccc(Cl)cc1Cl)[C@@H]1CCC(=O)N1Cc1ccc(Cl)cc1` was tested, and the Activity was “Non-Toxic”.
For `O=C(NCc1ccc(Cl)cc1Cl)[C@@H]1CCC(=O)N1c1cscn1`, the Activity was “Non-Toxic”.

Each molecule was assayed on RXF 393 (assay: Cytotoxicity against human RXF393 cells assessed as effect on cell growth at 10 uM incubated for 48 hrs by sulforhodamine B assay). Conditions: rxf 393, 48 h.
Type: cell-based
For `CN1C(=O)CC[C@H]1C(=O)NCc1cc(C(F)(F)F)ccc1Cl`, the Activity was “Non-Toxic”.
In the case of `O=C(NCc1ccc(Cl)cc1Cl)[C@@H]1CCC(=O)N1Cc1ccc(Cl)cc1`, the Activity is reported as “Non-Toxic”.
For `O=C(NCc1ccc(Cl)cc1Cl)[C@@H]1CCC(=O)N1c1cscn1`, the Activity was “Non-Toxic”.

The molecules below were run on SN12C (assay: Cytotoxicity against human SN12C cells assessed as effect on cell growth at 10 uM incubated for 48 hrs by sulforhodamine B assay). Conditions: not given.
Type: cell-based
For `CN1C(=O)CC[C@H]1C(=O)NCc1cc(C(F)(F)F)ccc1Cl`, the Activity was “Non-Toxic”.
For `O=C(NCc1ccc(Cl)cc1Cl)[C@@H]1CCC(=O)N1Cc1ccc(Cl)cc1`, the Activity was “Non-Toxic”.
`O=C(NCc1ccc(Cl)cc1Cl)[C@@H]1CCC(=O)N1c1cscn1` was tested, and the Activity was “Non-Toxic”.

The molecules below were run on MCF7 (assay: Cytotoxicity against human MCF7 cells assessed as effect on cell growth at 10 uM incubated for 48 hrs by sulforhodamine B assay). Conditions: mcf7, 48 h.
Type: cell-based
For `CN1C(=O)CC[C@H]1C(=O)NCc1cc(C(F)(F)F)ccc1Cl`, the Activity was “Non-Toxic”.
For `O=C(NCc1ccc(Cl)cc1Cl)[C@@H]1CCC(=O)N1Cc1ccc(Cl)cc1`, the Activity was “Non-Toxic”.
For `O=C(NCc1ccc(Cl)cc1Cl)[C@@H]1CCC(=O)N1c1cscn1`, the Activity was “Non-Toxic”.

Each molecule was assayed on MDA-MB-231 (assay: Cytotoxicity against human MDA-MB-231 cells assessed as effect on cell growth at 10 uM incubated for 48 hrs by sulforhodamine B assay). Conditions: mda-mb-231, 48 h.
Type: cell-based
For `CN1C(=O)CC[C@H]1C(=O)NCc1cc(C(F)(F)F)ccc1Cl`, the Activity was “Non-Toxic”.
For `O=C(NCc1ccc(Cl)cc1Cl)[C@@H]1CCC(=O)N1Cc1ccc(Cl)cc1`, the Activity was “Non-Toxic”.
For `O=C(NCc1ccc(Cl)cc1Cl)[C@@H]1CCC(=O)N1c1cscn1`, the Activity was “Non-Toxic”.

These molecules were tested on Hs-578T (assay: Cytotoxicity against human Hs 578T cells assessed as effect on cell growth at 10 uM incubated for 48 hrs by sulforhodamine B assay). Conditions: not given.
Type: cell-based
`CN1C(=O)CC[C@H]1C(=O)NCc1cc(C(F)(F)F)ccc1Cl` was tested, and the Activity was “Non-Toxic”.
In the case of `O=C(NCc1ccc(Cl)cc1Cl)[C@@H]1CCC(=O)N1Cc1ccc(Cl)cc1`, the Activity is reported as “Non-Toxic”.
In the case of `O=C(NCc1ccc(Cl)cc1Cl)[C@@H]1CCC(=O)N1c1cscn1`, the Activity is reported as “Non-Toxic”.

The molecules below were run on BT-549 (assay: Cytotoxicity against human BT549 cells assessed as effect on cell growth at 10 uM incubated for 48 hrs by sulforhodamine B assay). Conditions: bt-549, 48 h.
Type: cell-based
`CN1C(=O)CC[C@H]1C(=O)NCc1cc(C(F)(F)F)ccc1Cl` was tested, and the Activity was “Non-Toxic”.
In the case of `O=C(NCc1ccc(Cl)cc1Cl)[C@@H]1CCC(=O)N1Cc1ccc(Cl)cc1`, the Activity is reported as “Non-Toxic”.
In the case of `O=C(NCc1ccc(Cl)cc1Cl)[C@@H]1CCC(=O)N1c1cscn1`, the Activity is reported as “Non-Toxic”.
